Assay results taken from ChEMBL document CHEMBL4118195, “Synthesis and profiling of benzylmorpholine 1,2,4,5-tetraoxane analogue N205: Towards tetraoxane scaffolds with potential for single dose cure of malaria” (Bioorg Med Chem, 2018).

Tests used:
Plasmodium berghei [1] = test: Antimalarial activity against Plasmodium berghei infected in mouse assessed as reduction in parasitemia at 30 mg/kg, po administered as single dose measured on day 3 relative to control; assay type: functional; design: scale not given: the % may be the effect or the level left
[2] = Drug metabolism in mouse liver microsomes assessed as ring dehydrogenated metabolite formation at 5 uM after 60 mins by UPLC-MS analysis; assay type: ADME, microsome; details: 1 h
[3] = Cmax in humanized NOD.Cg-Prkdcscid Il2rgtm1Wjl/SzJ mouse infected with Plasmodium falciparum Pf3D70087/N9 at 100 mg/kg, po administered as single dose after 0.25 to 23 hrs by LC-MS/MS analysis; assay type: ADME, organism-based; design: dose 100 mg/kg, route oral; details: in vivo
[4] = Intrinsic clearance in rat liver microsomes assessed per mg protein at 5 uM by UPLC-MS analysis; assay type: ADME, microsome; details: read-out: CLH
[5] = Drug metabolism in rat liver microsomes assessed as metabolite M+16 (III) formation at 5 uM after 60 mins by UPLC-MS analysis; assay type: ADME, microsome; details: 1 h
[6] = Drug metabolism in human liver microsomes at 5 uM after 60 mins by UPLC-MS analysis; assay type: ADME, microsome; details: read-out: Drug metabolism
Cytochrome P450 3A4 = Cytochrome P450 3A4 (Homo sapiens, UniProt P08684); test: Inhibition of CYP3A4 in human liver microsomes assessed as testosterone 6beta-hydroxylation after 4 to 40 mins in presence of NADPH by LCMS analysis; assay type: ADME
Cytochrome P450 2D6 = Cytochrome P450 2D6 (Homo sapiens, UniProt P10635); test: Inhibition of CYP2D6 in human liver microsomes assessed as dextromethorphan O-demethylation after 4 to 40 mins in presence of NADPH by LCMS analysis
[7] = Cmax in humanized NOD.Cg-Prkdcscid Il2rgtm1Wjl/SzJ mouse infected with Plasmodium falciparum Pf3D70087/N9 at 5 mg/kg, po administered as single dose after 0.25 to 23 hrs by LC-MS/MS analysis; assay type: ADME, organism-based; design: dose 5 mg/kg, route oral; details: in vivo
Mus musculus [8] = test: Dose normalized Cmax in humanized NOD.Cg-Prkdcscid Il2rgtm1Wjl/SzJ mouse infected with Plasmodium falciparum Pf3D70087/N9 at 15 mg/kg, po administered as single dose after 0.25 to 23 hrs by LC-MS/MS analysis; assay type: ADME, organism-based; details: in vivo
[9] = Drug metabolism in rat liver microsomes assessed as deaminated morpholine acid metabolite formation at 5 uM after 60 mins by UPLC-MS analysis; assay type: ADME, microsome; details: 1 h
[10] = Drug metabolism in human liver microsomes assessed as morpholine ring opened metabolite formation at 5 uM after 60 mins by UPLC-MS analysis; assay type: ADME, microsome; details: 1 h
Mus musculus [11] = test: Dose normalized Cmax in humanized NOD.Cg-Prkdcscid Il2rgtm1Wjl/SzJ mouse infected with Plasmodium falciparum Pf3D70087/N9 at 30 mg/kg, po administered as single dose after 0.25 to 23 hrs by LC-MS/MS analysis; assay type: ADME, organism-based; details: in vivo
[12] = Drug metabolism in human liver microsomes assessed as deaminated morpholine metabolite formation at 5 uM after 60 mins by UPLC-MS analysis; assay type: ADME, microsome; details: 1 h
[13] = Metabolic stability in rat blood after 2 to 4 hrs by LC-MS method; assay type: ADME, tissue-based
[14] = Drug metabolism in human liver microsomes assessed as deaminated morpholine acid metabolite formation at 5 uM after 60 mins by UPLC-MS analysis; assay type: ADME, microsome; details: 1 h
[15] = Intrinsic clearance in mouse liver microsomes assessed per mg protein at 1 uM by UPLC-MS analysis; assay type: ADME, microsome; details: read-out: CLH
[16] = Drug degradation in mouse liver microsomes assessed as compound half life at 1 uM by UPLC-MS method; assay type: ADME, microsome
Mus musculus [17] = test: Dose normalized AUC (0 to t) in humanized NOD.Cg-Prkdcscid Il2rgtm1Wjl/SzJ mouse infected with Plasmodium falciparum Pf3D70087/N9 at 100 mg/kg, po administered as single dose by LC-MS/MS analysis; assay type: ADME, organism-based; details: in vivo
[18] = Drug metabolism in human liver microsomes assessed as metabolite M+16 (III) formation at 5 uM after 60 mins by UPLC-MS analysis; assay type: ADME, microsome; details: 1 h
Mus musculus [19] = test: Dose normalized Cmax in humanized NOD.Cg-Prkdcscid Il2rgtm1Wjl/SzJ mouse infected with Plasmodium falciparum Pf3D70087/N9 at 50 mg/kg, po administered as single dose after 0.25 to 23 hrs by LC-MS/MS analysis; assay type: ADME, organism-based; details: in vivo
Cytochrome P450 2C19 = Cytochrome P450 2C19 (Homo sapiens, UniProt P33261); test: Inhibition of CYP2C19 in human liver microsomes assessed as (S)-mephenytoin 4'-hydroxylation after 4 to 40 mins in presence of NADPH by LCMS analysis; assay type: ADME
[20] = Intrinsic clearance in rat liver microsomes assessed per mg protein at 1 uM by UPLC-MS analysis; assay type: ADME, microsome; details: read-out: CLH
[21] = Drug degradation in human liver microsomes assessed as compound half life at 1 uM by UPLC-MS method; assay type: ADME, microsome
[22] = Cmax in humanized NOD.Cg-Prkdcscid Il2rgtm1Wjl/SzJ mouse infected with Plasmodium falciparum Pf3D70087/N9 at 50 mg/kg, po administered as single dose after 0.25 to 23 hrs by LC-MS/MS analysis; assay type: ADME, organism-based; design: dose 50 mg/kg, route oral; details: in vivo
Plasmodium berghei [23] = test: Antimalarial activity against Plasmodium berghei infected in mouse assessed as mouse mean survival days at 30 mg/kg, po administered as single dose; assay type: functional

Chain of Cytochrome P450 3A4 (P08684 whole entry): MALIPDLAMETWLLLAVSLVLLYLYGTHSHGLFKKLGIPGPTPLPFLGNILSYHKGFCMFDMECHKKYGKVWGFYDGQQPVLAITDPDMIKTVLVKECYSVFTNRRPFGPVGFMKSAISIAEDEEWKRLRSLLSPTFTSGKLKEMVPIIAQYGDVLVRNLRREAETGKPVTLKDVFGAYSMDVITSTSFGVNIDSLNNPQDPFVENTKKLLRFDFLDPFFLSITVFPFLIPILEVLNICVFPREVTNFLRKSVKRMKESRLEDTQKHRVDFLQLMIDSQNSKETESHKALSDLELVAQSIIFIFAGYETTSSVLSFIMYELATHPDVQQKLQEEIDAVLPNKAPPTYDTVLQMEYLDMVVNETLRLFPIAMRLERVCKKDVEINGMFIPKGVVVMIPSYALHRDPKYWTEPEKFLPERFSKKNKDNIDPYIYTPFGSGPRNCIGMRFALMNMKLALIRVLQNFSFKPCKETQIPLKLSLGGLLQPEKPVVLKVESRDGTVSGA
Chain of Cytochrome P450 2C19 (P33261 whole entry): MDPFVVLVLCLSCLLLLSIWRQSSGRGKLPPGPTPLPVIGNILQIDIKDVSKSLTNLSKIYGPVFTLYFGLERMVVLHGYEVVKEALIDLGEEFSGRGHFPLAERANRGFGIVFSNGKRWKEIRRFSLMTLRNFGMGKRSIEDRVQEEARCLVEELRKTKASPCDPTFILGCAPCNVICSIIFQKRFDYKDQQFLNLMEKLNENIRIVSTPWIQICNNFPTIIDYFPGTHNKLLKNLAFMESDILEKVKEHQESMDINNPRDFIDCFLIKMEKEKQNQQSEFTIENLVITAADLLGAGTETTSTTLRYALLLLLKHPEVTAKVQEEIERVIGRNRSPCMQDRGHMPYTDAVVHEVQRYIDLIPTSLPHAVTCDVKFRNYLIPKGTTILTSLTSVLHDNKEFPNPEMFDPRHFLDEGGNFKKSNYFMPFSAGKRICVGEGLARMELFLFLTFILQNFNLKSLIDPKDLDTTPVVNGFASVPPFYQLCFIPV
Chain of Cytochrome P450 2D6 (P10635 whole entry): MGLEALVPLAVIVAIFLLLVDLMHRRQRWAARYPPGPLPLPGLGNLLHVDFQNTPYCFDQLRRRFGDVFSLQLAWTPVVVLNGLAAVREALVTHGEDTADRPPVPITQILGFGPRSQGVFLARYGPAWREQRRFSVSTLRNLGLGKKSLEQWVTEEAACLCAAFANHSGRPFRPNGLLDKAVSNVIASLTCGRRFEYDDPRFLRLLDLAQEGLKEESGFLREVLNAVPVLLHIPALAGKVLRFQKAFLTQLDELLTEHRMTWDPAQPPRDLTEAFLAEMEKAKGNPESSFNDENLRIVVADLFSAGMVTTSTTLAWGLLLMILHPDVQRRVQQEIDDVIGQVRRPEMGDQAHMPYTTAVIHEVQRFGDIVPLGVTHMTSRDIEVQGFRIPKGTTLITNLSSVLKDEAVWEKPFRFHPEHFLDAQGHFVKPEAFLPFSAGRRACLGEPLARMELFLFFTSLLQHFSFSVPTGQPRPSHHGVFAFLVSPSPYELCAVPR

c1cc(C2CCC3(CC2)OOC2(OO3)C3CC4CC(C3)CC2C4)ccc1CN1CCOCC1 (stereo unspecified)
Activity (Plasmodium berghei [1]): 99.42% | Drug metabolism [2]: Metabolite_Notdetected | Cmax [3]: 0.25 µg/mL | microsomal CLint at 5 µM [4]: 89 µL/min/mg | Drug metabolism [5]: Metabolite_Notdetected | metabolised at 1 h, 5 µM [6]: 63% | IC50 (Cytochrome P450 3A4): > 20 µM | IC50 (Cytochrome P450 2D6): > 20 µM | Cmax [7]: 0.109 µg/mL | Cmax/dose (Mus musculus [8]): 0.0099 µg/mL/mg/kg | Drug metabolism [9]: Metabolite_Notdetected | Drug metabolism [10]: Metabolite_Notdetected | Cmax/dose (Mus musculus [11]): 0.0049 µg/mL/mg/kg | Drug metabolism [12]: Metabolite_Notdetected | Stability [13]: Stable | Drug metabolism [14]: Metabolite_Notdetected | microsomal CLint at 1 µM [15]: 37 µL/min/mg | half-life at 1 µM [16]: 48 min | AUCt/dose (Mus musculus [17]): 0.0232 µg·h/mL/mg/kg | Drug metabolism [18]: Metabolite_Notdetected | Cmax/dose (Mus musculus [19]): 0.0121 µg/mL/mg/kg | IC50 (Cytochrome P450 2C19): > 20 µM | microsomal CLint at 1 µM [20]: 118 µL/min/mg | half-life at 1 µM [21]: 34 min | Cmax [22]: 0.607 µg/mL | MSD (Plasmodium berghei [23]): 26.3 days
